Assay results published in patent publication US20040253675A1, “Method for GPCR assay with a coexpressed Galpha protein” (Hitachi, Ltd., priority 2003, published 2004).

Key:
M4 receptor = assay: Ca-dependent Cl response in Xenopus oocytes coexpressing M4 receptor and chimeric Gqα subunit (G11α/G14α); assay type: cell-based; conditions: Xenopus oocyte, chimeric Gqα subunit coexpressed, clamped at −60 mV by TEVC, FIG. 5
Method: They were subjected to coexpression in Xenopus oocytes. […] Res. Commun. 201 (2), 894-901 (1994).
Thereafter, oocytes were cultured.

H2 receptor = H2 receptor (Homo sapiens, UniProt P25021); conditions: Xenopus oocyte
Chain of H2 receptor (P25021 whole entry): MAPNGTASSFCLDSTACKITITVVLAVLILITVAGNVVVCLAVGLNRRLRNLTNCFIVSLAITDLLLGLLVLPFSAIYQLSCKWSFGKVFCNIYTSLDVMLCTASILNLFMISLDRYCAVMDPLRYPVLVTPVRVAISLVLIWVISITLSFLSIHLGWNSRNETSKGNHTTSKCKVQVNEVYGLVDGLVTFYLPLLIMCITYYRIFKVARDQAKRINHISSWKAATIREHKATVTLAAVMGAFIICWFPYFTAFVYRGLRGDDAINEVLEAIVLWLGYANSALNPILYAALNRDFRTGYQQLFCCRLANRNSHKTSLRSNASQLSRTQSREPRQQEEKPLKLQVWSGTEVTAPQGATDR
Description: Oocytes removed from a female Xenopus were selected by a conventional method. RNA encoding the H1 and H2 receptors, M1 to M5 receptors, δ opioid receptors, or mGlu1 receptors that were synthesized in vitro were transfected into the selected oocyte together with RNA encoding a chimeric Gqα subunit constituted by a portion of the G11 protein α subunit and a portion of the G14 protein α subunit that was similarly synthesized. As a control, an oocyte to which RNA of the chimeric Gqα subunit was not to be transfected was prepared. Thereafter, oocytes were cultured.
The cultured oocytes were clamped at −60 mV by TEVC. […] The occurrence of Ca-dependent Cl response was then assayed.
RNA encoding the H2 receptor was transfected in the oocytes. Simultaneously or 24 hours thereafter, RNA encoding the chimeric Gqα subunit constituted by a portion of the G11α subunit and a portion of the G14α subunit was transfected therein. Thereafter, the ligand responses of these oocytes were assayed by the method described in Example 1.

Row | response generated by ligand, chimeric Gqα RNA transfected 24 hours after GPCR RNA compared with simultaneous transfection (H2 receptor; 10 μM ligand, FIG. 6) | Structure (SMILES) | response generated by ligand stimulus at various concentration levels (M4 receptor) | response generated by ligand stimulus at various concentration levels (H2 receptor; chimeric Gqα subunit coexpressed, clamped at −60 mV by TEVC, FIG. 5)
1 |  | CC(=O)OCC[N+](C)(C)C [Ach] | correlations between ligand concentration and size of response | 
2 | greatly increased | NCCc1c[nH]cn1 [histamine] |  | correlations between ligand concentration and size of response
